This note sets out measurements from ChEMBL document CHEMBL3880382, “TRH-like peptide derivatives as inhibitors of the TRH-degrading ectoenzyme” (2010).

The target in series [1] is T1, Thyrotropin releasing hormone degrading enzyme (Sus scrofa) (UniProt A0A287AP33). Description: Substrate activity at pig brain TRH-DE assessed as rate of hydrolysis at 1 mM incubated for 18 hrs by HPLC analysis.
In series [2] the target is T1, Thyrotropin releasing hormone degrading enzyme (Sus scrofa). Description: Substrate activity at pig brain TRH-DE assessed as Vmax to Km ratio.
For series [3] the target is unchanged. Description: Inhibition of pig brain TRH-DE at 1 mM using Glp-His-ProAMC as substrate by DPP-4-based continuous fluorometric method.
Substrate in series [4]: O=C1CC[C@@H](C(=O)N[C@@H](Cc2cnc[nH]2)C(=O)N2CCC[C@H]2C(=O)O)N1
In words: (§1) Substrate activity at pig brain TRH-DE assessed as Vmax after 18 hrs by HPLC analysis. To be noted: Sus scrofa.

Substrate in series [5]: NC(=O)[C@@H]1CCCN1C(=O)[C@H](Cc1ccc(O)cc1)NC(=O)[C@@H]1CCC(=O)N1
The series is described as §1. The following applies: Sus scrofa.

Substrate in series [6]: Cc1cc(=O)oc2cc(NC(=O)[C@@H]3CCCN3C(=O)[C@H](Cc3cnc[nH]3)NC(=O)[C@@H]3CCC(=O)N3)ccc12
The description is as §1. To be noted: Sus scrofa.

Substrate in series [7]: NC(=O)[C@@H]1CCCN1C(=O)[C@H](Cc1c[nH]cn1)NC(=O)[C@@H]1CCC(=O)N1
The description is as §1. To be noted: Sus scrofa.

Substrate in series [8]: NC(=O)[C@@H]1CCCN1C(=O)[C@H](Cc1ccccc1)NC(=O)[C@@H]1CCC(=O)N1
The description is as §1. The following applies: Sus scrofa.

Substrate in series [9]: NC(=O)[C@@H]1CCCN1C(=O)[C@H](Cc1cccs1)NC(=O)[C@@H]1CCC(=O)N1
Described as §1. The following applies: Sus scrofa.

Substrate in series [10]: O=C1CC[C@@H](C(=O)N[C@@H](Cc2cnc[nH]2)C(=O)N2CCC[C@H]2C(=O)O)N1
In words: (§2) Substrate activity at pig brain TRH-DE assessed as Km by discontinuous fluorometric method. The following applies: Sus scrofa.

Substrate in series [11]: NC(=O)[C@@H]1CCCN1C(=O)[C@H](Cc1ccc(O)cc1)NC(=O)[C@@H]1CCC(=O)N1
The series is described as §2. The following applies: Sus scrofa.

Substrate in series [12]: Cc1cc(=O)oc2cc(NC(=O)[C@@H]3CCCN3C(=O)[C@H](Cc3cnc[nH]3)NC(=O)[C@@H]3CCC(=O)N3)ccc12
The series is described as §2. The following applies: Sus scrofa.

Substrate in series [13]: NC(=O)[C@@H]1CCCN1C(=O)[C@H](Cc1c[nH]cn1)NC(=O)[C@@H]1CCC(=O)N1
Described as §2. The following applies: Sus scrofa.

Substrate in series [14]: NC(=O)[C@@H]1CCCN1C(=O)[C@H](Cc1ccccc1)NC(=O)[C@@H]1CCC(=O)N1
The description is as §2. The following applies: Sus scrofa.

Substrate in series [15]: NC(=O)[C@@H]1CCCN1C(=O)[C@H](Cc1cccs1)NC(=O)[C@@H]1CCC(=O)N1
The series is described as §2. To be noted: Sus scrofa.

Non-standard residues stand in square brackets, D forms with d. Residues, ends and D or L forms follow the SMILES beside them. hPhe = N[C@@H](CCc1ccccc1)C(=O)O; 2Thi = N[C@@H](Cc1cccs1)C(=O)O; pGlu = O=C1CC[C@@H](C(=O)O)N1; Phg = N[C@H](C(=O)O)c1ccccc1; Pip = O=C(O)[C@@H]1CCCCN1; Nva = CCC[C@H](N)C(=O)O

Consider `CC(C)C[C@H](NC(=O)[C@@H]1CCC(=O)N1)C(=O)N1CCC[C@H]1C(N)=O` ([pGlu]-Leu-Pro-NH2), for which the Activity in [1] worked out at 0.14 U/mg.
Regarding `NCCCC[C@H](NC(=O)[C@@H]1CCC(=O)N1)C(=O)N1CCC[C@H]1C(N)=O` ([pGlu]-Lys-Pro-NH2), the Activity in [1] stood at 0.46 U/mg.
Same read-out and setting: next, `CSCC[C@H](NC(=O)[C@@H]1CCC(=O)N1)C(=O)N1CCC[C@H]1C(N)=O` ([pGlu]-Met-Pro-NH2): 0.21 U/mg.
In the case of `NC(=O)[C@@H]1CCCN1C(=O)[C@H](Cc1ccccc1)NC(=O)[C@@H]1CCC(=O)N1` ([pGlu]-Phe-Pro-NH2), the Activity in [1] worked out at 1.56 U/mg. Moreover, the Vmax/Km in [2] amounted to 0.03 U/mg/µM.
`NC(=O)[C@@H]1CCCN1C(=O)[C@@H]1CCCN1C(=O)[C@@H]1CCC(=O)N1` ([pGlu]-Pro-Pro-NH2) showed an inhibition in series [3] of 3%.
For `NC(=O)[C@@H]1CCCN1C(=O)[C@H](CO)NC(=O)[C@@H]1CCC(=O)N1` ([pGlu]-Ser-Pro-NH2), in series [1], the Activity worked out at 0.05 U/mg.
For `C[C@@H](O)[C@H](NC(=O)[C@@H]1CCC(=O)N1)C(=O)N1CCC[C@H]1C(N)=O` ([pGlu]-Thr-Pro-NH2), the Activity in [1] was 0.14 U/mg.
The molecule `NC(=O)[C@@H]1CCCN1C(=O)[C@H](Cc1c[nH]c2ccccc12)NC(=O)[C@@H]1CCC(=O)N1` ([pGlu]-Trp-Pro-NH2) displayed an inhibition in series [3] of 71%.
As to `NC(=O)[C@@H]1CCCN1C(=O)[C@H](Cc1ccc(O)cc1)NC(=O)[C@@H]1CCC(=O)N1` ([pGlu]-Tyr-Pro-NH2), the Activity in series [1] is 0.66 U/mg. Moreover, the Vmax/Km in series [2] was 0.05 U/mg/µM.
Consider `CC(C)[C@H](NC(=O)[C@@H]1CCC(=O)N1)C(=O)N1CCC[C@H]1C(N)=O` ([pGlu]-Val-Pro-NH2), for which the Activity in series [1] is 0.05 U/mg.
For the molecule `NC(=O)[C@@H]1CCCN1C(=O)[C@H](Cc1cccs1)NC(=O)[C@@H]1CCC(=O)N1` ([pGlu]-[2Thi]-Pro-NH2), in series [1], the Activity was found to be 2.12 U/mg. In addition, the Vmax/Km in series [2] is 0.06 U/mg/µM.
In the case of `CCC[C@H](NC(=O)[C@@H]1CCC(=O)N1)C(=O)N1CCC[C@H]1C(N)=O` ([pGlu]-[Nva]-Pro-NH2), the Activity in series [1] was determined as 0.04 U/mg.
As to `NC(=O)[C@@H]1CCCN1C(=O)[C@@H](NC(=O)[C@@H]1CCC(=O)N1)c1ccccc1` ([pGlu]-[Phg]-Pro-NH2), the inhibition in series [3] is 57%.
Take `NC(=O)[C@@H]1CCCN1C(=O)[C@@H]1CCCCN1C(=O)[C@@H]1CCC(=O)N1` ([pGlu]-[Pip]-Pro-NH2): the inhibition in series [3] was determined as 40%.
`NC(=O)C[C@@H](NC(=O)[C@@H]1CCC(=O)N1)C(=O)N1CCC[C@H]1C(N)=O` ([pGlu]-[dN]-Pro-NH2) returned an inhibition in [3] of 2%.
For `NC(=O)[C@@H]1CCCN1C(=O)[C@H](CCc1ccccc1)NC(=O)[C@@H]1CCC(=O)N1` ([pGlu]-[hPhe]-Pro-NH2), the Activity in [1] was found to be 0.05 U/mg.

B1: Thyrotropin releasing hormone degrading enzyme (Sus scrofa), A0A287AP33 (protein)
chain: MALDGERGEQEEEKKKKKKKKKRKKKKEEEGAKKSSSPFVATMGENDAALRAGGRGLSDPWADSVGVRPRTTERHITVHKRLVLAFAVSIVALLAVTMLAVLLSLRFDECGASIPPGADGGPAGFPARGGNESLPGSSRRDHHAGGDSSQPGAGREDTPETPSAQPPSEEEQEQWQPWTQLRLSGHLKPLHYNLMLTAFMENFTFSGEVNVEIACRNATRYVVLHASRVAVEKVQVAEDRVAGAVPVAGFFLYPQTQVLVVVLNRTLDAQRNYNLKIIYNALIENELLGFFRSSYVLHGERRFLGVTQFSPTHARKAFPCFDEPIYKATFKISIKHQATYLSLSNMPVETSVFEEDGWVTDHFSQTPLMSTYYLAWAICNFTYRETTTKSGVVVRLYARPDAIRRGSGDYALHITKRLIEFYEDYFKVPYSLPKLDLLAVPKHPYAAMENWGLSIFVEQRILLDPSVSSISYLLDVTMVIVHEICHQWFGDLVTPVWWEDVWLKEGFAHYFEFVGTDYLYPGWNMEKQRFLTDVLHEVMLLDGLASSHPVSQEVLRATDIDRVFDWIAYKKGAALIRMLANFMGHSVFQRGLQDYLTIHKYGNAARNDLWNTLSEALKRNGKYVNIQEVMDQWTLQMGYPVITIFGNTTAENRIIITQQHFIYDISAKAKPHELQNSSYLWQIPLTIVVGNRSHVSSEAIIWVSNKTEHHRITSLNKGSWLLGNINQTGYFRVNYDLRNWRLLIDQLIRNHEVLSVSNRAGLIDDAFSLARAGYLPQNIPLEIIRYLSEEKDFLPWHAASRALYPLDKLLDRMEKYNVFNEYILKQVATTYIKLGWPKNNFNGSLVQASYQHEELRREVIMLACSFGNKHCHQQASTLISDWISSNRNRIPLNVRDIVYCTGVSLLDEDVWEFIWMKFHSTTAISEKKILLEALTCSDDRNLLNRLLNLSLNSEVVLDQDAIDVIIHVARNPHGRDLAWKFFRDKWKILNTRYGEALFMNSKLISGVTEFLNTEGELKELKNFMKSYDGVAAASFSRAVETVEANVRWKMLYQDELFQWLGKALRH
As for B1, the Vmax in series [4] amounted to 4.43 U/mg; in series [5], 0.67 U/mg; in series [6] it was 0.11 U/mg; in series [7], 2.63 U/mg; in series [8] it was 1.64 U/mg; in [9], 2.19 U/mg. For the same molecule, the Km in series [10] is 311 µM; in [11] it was 15 µM; in series [12], 3.1 µM; in [13], 35 µM; in [14], 55 µM; in series [15], 34 µM.
